Here are results for 6 compounds from patent US5968959A, “Method for the prevention and treatment of stunned myocardium” (Orion Corporation, priority 1998, dated 1999).

In assay [1] the target is T1, SR Ca2+-ATPase in fast skeletal muscle SR vesicles (Cavia porcellus, UniProt H0UXI0).
T1 construct: Their hearts or the psoas muscles were excised; from tissue; host or cells: guinea pig psoas muscle, SR vesicles
As to the kind of experiment: Calcium uptake assay (fluo-3), fast skeletal muscle (psoas m.) SR vesicles, which lack phospholamban. The assay is classed as biochemical, guinea pig. Conditions: for activation at 100 µM: compound 100 μM. How it is done:
(§1) Preparation of the SR-vesicles
(§2) Guinea pigs (10-12) were decapited. Their hearts or the psoas muscles were excised, washed in ice-cold 0.9% NaCl and cut into pieces in a buffer containing 20 mM Tris-maleate, 0.3 M sucrose, pH 7.0. Thereafter tissue pieces were homogenized with Polytron and further with Potter (10 strokes). The homogenate was centrifugated at 1000 g for 15 min at 4° C. The supernatant was collected and the pellet was resuspended into 5 ml of the buffer (20 mM Tris-maleate, 0.3 M sucrose, pH 7.0) and recentrifugated at 1000 g for 10 min at 4° C. The obtained supernatant was combined with the earlier collected supernatant and centrifugated once again at 10 000 g for 20 min at 4° C. The final supernatant was filtered into a bottle equipped with a magnetic stirrer. KCl was added to the filtered supernatant to achieve the final concentration of 0.6 M (at 4° C.). The obtained solution was centrifugated at 100 000 g for 60 min at 4° C. The pellet was suspended in 5 ml of the buffer containing 20 mM Tris-maleate, 0.3 M sucrose, pH 7.0 and centrifugated at 100 000 g for 60 min at 4° C. The obtained pellet was suspended in 5 ml of buffer containing 20 mM Tris-maleate, 0.3 M sucrose, 0.1 M KCl, pH 7.0 and stored at -80° C. until use. The protein concentration was also measured in order to standardise the separately prepared vesicle preparations.
(§3) In the calcium uptake assay, the fluorescent indicator, fluo-3 was used to detect the decrease of the extravesicular Ca^2+ -concentration, when the SR Ca^2+ ATPase was transferring Ca^2+ from the extravesicular space into the SR-vesicles.
(§4) The SR-vesicles obtained above (50 μg protein/ml) were pre-incubated with or without the test compound at 37° C. for 5 min in the assay buffer containing 40 mM imidazole, 95 mM KCl, 5 mM NaN3, 5 mM MgCl2, 0.5 mM EGTA, 5 mM potassium oxalate, 2 μM ruthenium red, 5 μM fluo-3, pH 7.0. The free calcium was adjusted to 0.1 μM or to 0.04 μM by CaCl2. The reaction was initiated by adding ATP (5 mM). The final reaction volume was 1.5 ml. The fluorescence of reaction mixture was measured for 3 min by using the excitation and emission wavelengths of 510 nm and 530 nm, respectively.
(§5) The experiments were carried out at 0.1 μM and 0.04 μM free calcium concentrations, respectively.

Assay [2] deals with T2, phospholamban inhibition of SR Ca2+-ATPase in cardiac muscle SR vesicles (Cavia porcellus, UniProt A0A286XLC6).
T2 construct: Their hearts or the psoas muscles were excised; from tissue; host or cells: guinea pig heart (ventricular myocardium), SR vesicles
T2 sequence (A0A286XLC6 1-52): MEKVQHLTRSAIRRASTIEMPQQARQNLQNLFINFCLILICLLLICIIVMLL
As to the kind of experiment: Calcium uptake assay (fluo-3), cardiac SR vesicles. The assay is classed as biochemical, guinea pig. The settings on record: for activation at 100 µM: compound 100 μM. How it is done: as §1, §2, §3, §4, §5

For assay [3], the system named is PLB[1-36 a.a.](Ser16PO3-, Thr17PO3-). As to the kind of experiment: Circular dichroism (CD) spectroscopy, binding to double phosphorylated phospholamban fragment. Details: species or system human. The settings on record: double phosphorylated peptide; FIG. 2. How it is done: (§6) Both the 36 amino acid N-terminal fragment of human phospholamban (PLB [1-36 a.a.]) and the 36 amino acid N-terminal fragment of double phosphorylated human phospholamban (PLB [1-36 a.a.](Ser16PO3 -, Thr17PO3 -)) were obtained by peptide synthesis. The peptides were purified by reverse phase HPLC, analysed for homogenity by mass spectrometry and were found pure at 97%. The peptides were lyophilized and then resuspended in water at the final concentration of 0.1 mM, for CD analysis. The pH of both solutions was between 3 and 4 and was not further adjusted. Compound of Example 1c was solved in water at a final concentration of 0.1 mM. The pH was adjusted at 7.2 by adding 1 N NaOH.
(§7) Circular dichroism spectra were acquired at 24° C. on samples of 100 μl. The spectra were recorded on a Jasco J-720 spectropolarimeter using a 1 mm path-length quartz cuvette. The band width was 1 nm, the sensitivity 20 mdeg, the step resolution 0.5 nm, the response time 0.5 sec, and the scan speed 20 nm/min (from 250 to 190 nm). The spectra were expressed in [θ]×10^-3 ×degrees×cm^2 ×dmol^-1.
Background: Circular dichroism is the unequal absorption of left and right circularly polarised light.

For assay [4], the target named is T3, PLB[1-36 a.a.] (36 amino acid N-terminal fragment of human phospholamban) (Homo sapiens, UniProt P26678).
T3 construct: the pSer16/pThr17 doubly phosphorylated peptide was compared
T3 sequence (P26678 1-36): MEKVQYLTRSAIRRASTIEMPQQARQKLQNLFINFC
As to the kind of experiment: Circular dichroism (CD) spectroscopy, binding to cytosolic part of phospholamban. The settings on record: FIG. 2. As for the experimental part: as §6, §7

The test system of assay [5] is isolated guinea-pig Langendorff heart. As to the kind of experiment: Development of stunned myocardium in isolated Langendorff heart (ischemia-reperfusion). Conditions: 10 μM in perfusion buffer; three 8 min global ischemia periods each followed by reperfusion; FIG. 3B. How it is done:
Guinea-pigs of either sex weighing 300-400 g were used in the study. After the guinea-pig was sacrificed by a blow on the skull and decapitated the heart was rapidly excised. The heart was then rinsed in oxygenated perfusion buffer. A cannula was inserted into the aorta and secured with a ligature. Retrograde perfusion began as soon as the heart was placed in a thermostatically controlled moist chamber of the Langendorff apparatus. Modified Tyrode solution (37° C.), equilibrated in a thermostatically controlled bulb oxygenator with carbogen (95% O2 and 5% CO2) was used as a perfusion buffer. The composition of the Tyrode solution was (in mM): NaCl 135; MgCl2 ×6H2 O 1; KCl 5; CaCl2 ×2H2 O 2; NaHCO3 15; Na2 HPO4 ×2H2 O 1; glucose 10; pH 7.3-7.4. The experiments were carried out under constant pressure condition (50 mmHg). After a short prestabilization (10 min) a latex balloon attached through the stainless-steel cannula to a pressure transducer was carefully placed into the left ventricle through the left pulmonary vein and the left atrium. The latex balloon, the cannula and the chamber of the pressure transducer were filled with ethylene glycol/water (1:1) mixture avoiding any air-bubble. The isovolumetric left ventricular pressure was recorded through the pressure transducer. […]

The mark [6] stands for this setting: 0.05 h, 0.1 μM free calcium, read-out: The stimulation (%) of Ca2+ uptake, A (ventricular myocardium vesicles).
Where [7] appears, read: 0.05 h, 0.04 μM free calcium, read-out: The stimulation (%) of Ca2+ uptake, B (fast skeletal muscle vesicles).

SMILES strings stand for the structures. “Also recorded” adds a separate entry of the source.

T1 sequence (H0UXI0 entry or part of it limits assumed): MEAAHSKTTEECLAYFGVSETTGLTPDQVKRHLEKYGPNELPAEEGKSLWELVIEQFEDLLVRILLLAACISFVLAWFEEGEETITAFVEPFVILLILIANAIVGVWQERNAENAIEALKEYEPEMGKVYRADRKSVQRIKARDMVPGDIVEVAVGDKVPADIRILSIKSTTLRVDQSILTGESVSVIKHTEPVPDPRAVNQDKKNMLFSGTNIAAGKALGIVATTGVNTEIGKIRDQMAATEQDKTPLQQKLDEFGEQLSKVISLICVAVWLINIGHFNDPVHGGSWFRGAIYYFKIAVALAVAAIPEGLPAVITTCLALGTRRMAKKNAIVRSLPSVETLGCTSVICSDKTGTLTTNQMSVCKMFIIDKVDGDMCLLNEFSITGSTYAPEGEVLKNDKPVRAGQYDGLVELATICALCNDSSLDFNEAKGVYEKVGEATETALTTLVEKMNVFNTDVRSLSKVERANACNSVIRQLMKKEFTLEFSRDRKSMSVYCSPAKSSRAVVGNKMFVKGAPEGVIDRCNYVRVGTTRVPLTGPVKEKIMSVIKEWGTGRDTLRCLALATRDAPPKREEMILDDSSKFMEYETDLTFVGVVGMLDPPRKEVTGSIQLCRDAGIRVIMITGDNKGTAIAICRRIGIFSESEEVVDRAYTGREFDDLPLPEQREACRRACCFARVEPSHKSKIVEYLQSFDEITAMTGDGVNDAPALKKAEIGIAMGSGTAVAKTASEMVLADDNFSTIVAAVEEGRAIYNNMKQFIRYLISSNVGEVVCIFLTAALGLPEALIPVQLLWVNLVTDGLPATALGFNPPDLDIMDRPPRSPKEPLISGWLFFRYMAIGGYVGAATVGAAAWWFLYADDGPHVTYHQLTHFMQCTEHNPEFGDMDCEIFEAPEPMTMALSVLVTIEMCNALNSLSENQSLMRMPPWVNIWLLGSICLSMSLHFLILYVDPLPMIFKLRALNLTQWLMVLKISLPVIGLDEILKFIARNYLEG

For the compound `Cc1c(Cc2ccccc2)c(=O)oc2cc(OCc3noc(=O)[nH]3)cc(OCc3noc(=O)[nH]3)c12` [Example 3c, 3-Benzyl-5,7-bis[(2,5-dihydro-5-oxo-4H -1,2,4-oxadiazol-3-yl)-methoxy]-4-methyl-2H -1-benzopyran-2-one], in assay [1] (0.05 h, compound 20 μM, 0.04 μM free calcium, read-out: The stimulation (%) of Ca2+ uptake, B (fast skeletal muscle vesicles)), the activation at 20 µM worked out at 0%.
Take `Cc1c(CCc2ccccc2)c(=O)oc2cc(OCc3nnn[nH]3)cc(OCc3nnn[nH]3)c12` [Example 7c, 5,7-Bis[(1H-tetrazol-5-yl)methoxy]-4-methyl-3-(2-phenylethyl)-2H-1benzopyran-2-one]: the activation at 100 µM in assay [2] (setting [6]) is 5%; in assay [1] (setting [7]), -17%.
With `O=c1oc2cc(OCc3nnn[nH]3)cc(OCc3nnn[nH]3)c2c2c1C(c1ccccc1)CCC2` (centres unmarked) [Example 2c, 7,8,9,10-Tetrahydro-1,3-bis[(1H -tetrazol-5-yl)methoxy]-7-phenyl-6H-dibenzo[b,d]pyran-6-one], the activation at 100 µM in assay [1] (setting [7]) is -1%.
As to `Cc1c(Cc2ccccc2)c(=O)oc2cc(OCc3nnn[nH]3)cc(OCc3nnn[nH]3)c12` [Example 1c, 3-Benzyl-5,7-bis[(1H -tetrazol-5-yl)methoxy]-4-methyl-2H -1-benzopyran-2-one], the activation at 100 µM in assay [2] (setting [6]) was 42%; in assay [1] (setting [7]), -6%. The “Interaction with phosphorylated PLB[1-36 a.a.](Ser16PO3-, Thr17PO3-) by CD” value in assay [3] is given as “does not interact or interacts weakly”. In addition, in assay [4] (50 μM each, water, room temperature), the “Change in CD spectrum (α-helical contribution) of PLB[1-36 a.a.] after addition of compound” value was “marked increase of α-helical contribution”. In addition, the “Interaction (complex formation) with PLB[1-36 a.a.] by CD” value in assay [4] (unphosphorylated peptide) is given as “forms a complex with PLB; also recorded: interacts with the cytosolic part of phospholamban”.
For `Cc1c(Cc2ccccc2)c(=O)n(Cc2ccccc2)c2cc(OCC(=O)NO)cc(OCC(=O)NO)c12` [Example 23, 5,7-Bis(hydroxyaminocarbonylmethoxy)-1,3-dibenzyl-4-methyl-2(1H)-quinolinone], the activation at 5 µM in assay [2] (0.05 h, compound 5 μM, 0.1 μM free calcium, read-out: The stimulation (%) of Ca2+ uptake, A (ventricular myocardium vesicles)) came out at 20%.
`Cc1c(Cc2ccccc2)c(=O)n(Cc2ccccc2)c2cc(OCc3nnn[nH]3)cc(OCc3nnn[nH]3)c12` [Example 8g, 5,7-Bis[(1H-tetrazol-5-yl)methoxy]-1,3-dibenzyl-4-methyl-2(1H)-quinolinone]: the “Effect on the Ca2+ uptake rate into the cardiac muscle SR vesicles” value in assay [2] (0.1, 1.0 and 10 μM, FIG. 1) is “accelerated the calcium uptake”. Moreover, the “Effect on the calcium uptake into the SR vesicle prepared from the fast skeletal muscle” value in assay [1] (0.1-10 μM) is reported as “did not change the calcium uptake”. Moreover, in assay [1] (0.05 h, compound 10 μM, 0.04 μM free calcium, read-out: The stimulation (%) of Ca2+ uptake, B (fast skeletal muscle vesicles)), the activation at 10 µM was 0%. The “Development of stunned myocardium (left ventricular systolic pressure)” value in assay [5] is “complete inhibition of the development of stunned myocardium; also recorded: completely inhibited the development of stunned myocardium”.
